Data: ChEMBL document CHEMBL1127296, “Interaction of calcium channel antagonists with calcium: structural studies on nicardipine and its Ca2+ complex” (J Med Chem, 1994)

Key:
[1] = Dissociation constant to estimate the calcium binding to the compound at the ratio of 1:1
[2] = Dissociation constant to estimate the calcium binding to the compound at the ratio of 2:1

SMILES: COC(=O)C1=C(C)NC(C)=C(C(=O)OCCN(C)Cc2ccccc2)C1c1cccc([N+](=O)[O-])c1 (configuration not stated)
- K1 [1]: 100 µM
- K2 [2]: 26 µM
